Format in all cases: cell-based
The test system of assay [1] is HT-29 cells. Nature of the assay: MTT cell viability assay, HT-29. The following applies: Homo sapiens, 72 h, MTT assay, 3 d treatment, serial dilutions. (In general: Tetrazolium assays rely on reduction of a dye to a coloured formazan, in cell work by metabolically active cells.)
Procedure: MTT assay was conducted for HT-29 cells after 3 d treatment with indicated compounds with serial dilutions.
MTT assay was conducted for HT-29 (A) and SK-MEL-28 (B) cells after 3 d treatment with DMSO or indicated compounds with serial dilutions. Clonogenic assay was performed in HT-29 (C) and SK-MEL-28 (D) cells for 14 d treatment with DMSO or indicated compounds with 10, 30 and 100 nM, in duplicate, respectively. Cells were then stained by crystal violet.
HT-29 or SK-MEL-28 cells (300 cells per well) were seeded in 12-well plates. After 20 h, cells were treated with DMSO or indicated concentrations of compounds in duplicate for two weeks. Medium containing indicated compounds was changed every 3 days. Cells were then fixed and stained with the solution containing 6% (v/v) glutaraldehyde (G5882, Sigma-Aldrich) and 0.5% (w/v) crystal violet for 1 h. To remove the background color, the plates with stained cells were immersed in running water until clear colonies were observed. The plates were dried at RT. The staining images were obtained with Epson Perfection V600 Photo.
For assay [2], the system named is MEK1/2. Put plainly: Western blot of MEK1/2 protein levels in HT-29 cells. Particulars: 24 h.
Procedure: Compound concentrations are 0.3 μM, 1 μM and 3 μM.
The indicated protein levels were determined by Western blots.
The sample was centrifuged at 12,000 g for 10 min at 4° C. to get supernatant as cell lysate. Protein concentrations were quantified using Pierce rapid gold BCA protein assay kit.
Assay [3] concerns HT-29 cells. Nature of the assay: WST-8 cell viability assay, HT-29. Particulars: WST-8 3 d serial dilutions, clonogenic assay 10 d. Here is the method: (§1) Cells were fixed and stained by crystal violet.
(§2) Cells (2000 cells per well) were seeded into 96-well microplates. After 20 h, cells were treated with 0.1% DMSO or indicated serial dilutions of compounds in duplicate or triplicate for 3 days. Cell viability was tested using MTT (M6494, Thermo Fisher Scientific) or WST-8 reagent (CK04, Dojindo). Briefly, 12 mM MTT was prepared in PBS or WST-8 reagent was warmed up to room temperature. 20 μL MTT or CCK-8 was then added to each well and the plates were kept in incubator at 37° C. for 3 h in the dark. For the WST-8 assay, signal was obtained after the incubation. For the MTT assay, cell medium was replaced with 200 μL of DMSO after the incubation, and then cell plates were kept at 37° C. for another 30 min. Absorbance signals for MTT and WST-8 were read at 540 nm and 450 nm respectively, with 690 nm as reference performed with Infinite F PLEX plate reader (TECAN, Morrisville, NC, USA). GI50 values were analyzed using GraphPad Prism 8 from the data of at least three independent experiments.

Assay [4] has as its system SK-MEL-28 cells. Put plainly: WST-8 cell viability assay, SK-MEL-28. The following applies: WST-8 3 d serial dilutions. Here is the method:
as §1, §2

The mark [5] stands for this setting: HT-29 cells, 0.3 μM, 1 μM and 3 μM, western blot normalized with α-tubulin.

Structures are written as SMILES.

We go through 15 molecules from patent US12103924B2, “Mitogen-activated protein kinase kinase (MEK) degradation compounds and methods of use” (Icahn School of Medicine at Mount Sinai, priority 2020, dated 2024).

`O=C1CCC(N2C(=O)c3ccc(NCCCCCNCCCONC(=O)c4ccc(F)c(F)c4Nc4ccc(I)cc4F)cc3C2=O)C(=O)N1` (centres unmarked) [CPD-043, N-(3-((5-((2-(2,6-dioxopiperidin-3-yl)-1,3-dioxoisoindolin-5-yl)amino)pentyl)amino)propoxy)-3,4-difluoro-2-((2-fluoro-4-iodophenyl)amino)benzamide]: it took 0.5 ± 0.1 µM to inhibit growth in assay [1] by half (GI50). Moreover, the “MEK1 and MEK2 protein levels” value in assay [2] (setting [5]) was “significantly degraded”.

Take `Cc1ncsc1-c1ccc(CNC(=O)[C@@H]2C[C@@H](O)CN2C(=O)[C@@H](NC(=O)CCCCCCCCCCNCCCONC(=O)c2ccc(F)c(F)c2Nc2ccc(I)cc2F)C(C)(C)C)cc1` [CPD-014, (2S,4R)-1-((S)-20-(tert-butyl)-1-(3,4-difluoro-2-((2-fluoro-4-iodophenyl)amino)phenyl)-1,18-dioxo-3-oxa-2,7,19-triazahenicosan-21-oyl)-4-hydroxy-N-(4-(4-methylthiazol-5-yl)benzyl)pyrrolidine-2-carboxamide]: halving of growth in assay [1] (GI50) required 0.4 ± 0.2 µM. For the same molecule, the “MEK1 and MEK2 protein levels” value in assay [2] (setting [5]) is “reduced”.

For `O=C1CCC(N2C(=O)c3ccc(NCCCCCCCCNCCCONC(=O)c4ccc(F)c(F)c4Nc4ccc(I)cc4F)cc3C2=O)C(=O)N1` (centres unmarked) [CPD-046, N-(3-((8-((2-(2,6-dioxopiperidin-3-yl)-1,3-dioxoisoindolin-5-yl)amino)octyl)amino)propoxy)-3,4-difluoro-2-((2-fluoro-4-iodophenyl)amino)benzamide], the GI50 (in general, the concentration that inhibits growth by half) in assay [1] turned out to be 0.3 ± 0.1 µM. In addition, in assay [2] (setting [5]), the “MEK1 and MEK2 protein levels” value is listed as “significantly degraded”.

`O=C1CCC(N2C(=O)c3ccc(NCCOCCOCCOCCOCCNCCCONC(=O)c4ccc(F)c(F)c4Nc4ccc(I)cc4F)cc3C2=O)C(=O)N1` (centres unmarked) [CPD-050, N-((1-((2-(2,6-dioxopiperidin-3-yl)-1,3-dioxoisoindolin-5-yl)amino)-3,6,9,12-tetraoxa-15-azaoctadecan-18-yl)oxy)-3,4-difluoro-2-((2-fluoro-4-iodophenyl)amino)benzamide] returned a GI50 in assay [1] of 0.5 ± 0.06 µM. For the same molecule, the “MEK1 and MEK2 protein levels” value in assay [2] (setting [5]) is on record as “significantly degraded”.

Consider `O=C1CCC(N2C(=O)c3ccc(NCCCCCCCNCCCONC(=O)c4ccc(F)c(F)c4Nc4ccc(I)cc4F)cc3C2=O)C(=O)N1` (centres unmarked) [CPD-045, N-(3-((7-((2-(2,6-dioxopiperidin-3-yl)-1,3-dioxoisoindolin-5-yl)amino)heptyl)amino)propoxy)-3,4-difluoro-2-((2-fluoro-4-iodophenyl)amino)benzamide], for which the GI50 in assay [1] was found to be 0.5 ± 0.2 µM. Further, the “MEK1 and MEK2 protein levels” value in assay [2] (setting [5]) is listed as “significantly degraded”.

Turning to `Cc1ncsc1-c1ccc([C@H](C)NC(=O)[C@H]2C[C@H](O)CN2C(=O)[C@@H](NC(=O)CCCCCCCCCCN(C)CCCONC(=O)c2ccc(F)c(F)c2Nc2ccc(I)cc2F)C(C)(C)C)cc1` [CPD-053, (2R,4S)-1-((S)-20-(tert-butyl)-1-(3,4-difluoro-2-((2-fluoro-4-iodophenyl)amino)phenyl)-7-methyl-1,18-dioxo-3-oxa-2,7,19-triazahenicosan-21-oyl)-4-hydroxy-N-((S)-1-(4-(4-methylthiazol-5-yl)phenyl)ethyl)pyrrolidine-2-carboxamide], the growth of cells entry in assay [3] and in assay [4] was “did not significantly suppress” throughout.

Regarding `O=C1CCC(N2C(=O)c3ccc(NCCCNCCCONC(=O)c4ccc(F)c(F)c4Nc4ccc(I)cc4F)cc3C2=O)C(=O)N1` (centres unmarked) [CPD-041, N-(3-((3-((2-(2,6-dioxopiperidin-3-yl)-1,3-dioxoisoindolin-5-yl)amino)propyl)amino)propoxy)-3,4-difluoro-2-((2-fluoro-4-iodophenyl)amino)benzamide], the GI50 in assay [1] stood at 0.5 ± 0.2 µM. For the same molecule, the “MEK1 and MEK2 protein levels” value in assay [2] (setting [5]) is listed as “not”.

Take `Cc1ncsc1-c1ccc(CNC(=O)[C@@H]2C[C@@H](O)CN2C(=O)[C@@H](NC(=O)CCCCCCNCCCONC(=O)c2ccc(F)c(F)c2Nc2ccc(I)cc2F)C(C)(C)C)cc1` [CPD-001, (2S,4R)-1-((S)-16-(tert-Butyl)-1-(3,4-difluoro-2-((2-fluoro-4-iodophenyl)amino)phenyl)-1,14-dioxo-3-oxa-2,7,15-triazaheptadecan-17-oyl)-4-hydroxy-N-(4-(4-methylthiazol-5-yl)benzyl)pyrrolidine-2-carboxamide]: in assay [1], halving of growth (GI50) required 1.4 ± 0.2 µM. In assay [2] (setting [5]), the “MEK1 and MEK2 protein levels” value is “reduced”.

`O=C1CCC(N2C(=O)c3cccc(NCCOCCNCCCONC(=O)c4ccc(F)c(F)c4Nc4ccc(I)cc4F)c3C2=O)C(=O)N1` (centres unmarked) [CPD-019, N-(3-((2-(2-((2-(2,6-dioxopiperidin-3-yl)-1,3-dioxoisoindolin-4-yl)amino)ethoxy)ethyl)amino)propoxy)-3,4-difluoro-2-((2-fluoro-4-iodophenyl)amino)benzamide]: in assay [1], the GI50 amounted to 1.2 ± 0.2 µM. Moreover, the “MEK1 and MEK2 protein levels” value in assay [2] (setting [5]) is recorded as “not”.

Consider `O=C(NOC[C@H](O)CO)c1ccc(F)c(F)c1Nc1ccc(I)cc1F` [PD0325901, reference compound], for which, in assay [2] (HT-29 cells, 0.1, 0.3, or 1 μM), the “MEK1 and MEK2 protein levels” value is on record as “not”.

`Cc1ncsc1-c1ccc(CNC(=O)[C@@H]2C[C@@H](O)CN2C(=O)[C@@H](NC(=O)COCCOCCOCCNCCCONC(=O)c2ccc(F)c(F)c2Nc2ccc(I)cc2F)C(C)(C)C)cc1` [CPD-015, (2S,4R)-1-((S)-20-(tert-butyl)-1-(3,4-difluoro-2-((2-fluoro-4-iodophenyl)amino)phenyl)-1,18-dioxo-3,10,13,16-tetraoxa-2,7,19-triazahenicosan-21-oyl)-4-hydroxy-N-(4-(4-methylthiazol-5-yl)benzyl)pyrrolidine-2-carboxamide] came in with a GI50 in assay [1] of 1.3 ± 0.1 µM. Further, the “MEK1 and MEK2 protein levels” value in assay [2] (setting [5]) is “reduced”.

As for `O=C1CCC(N2C(=O)c3cccc(NCCNCCCONC(=O)c4ccc(F)c(F)c4Nc4ccc(I)cc4F)c3C2=O)C(=O)N1` (centres unmarked) [CPD-024, N-(3-((2-((2-(2,6-dioxopiperidin-3-yl)-1,3-dioxoisoindolin-4-yl)amino)ethyl)amino)propoxy)-3,4-difluoro-2-((2-fluoro-4-iodophenyl)amino)benzamide], the GI50 in assay [1] was 0.4 ± 0.01 µM. For the same molecule, the “MEK1 and MEK2 protein levels” value in assay [2] (setting [5]) is “not”.

`Cc1ncsc1-c1ccc(CNC(=O)[C@@H]2C[C@@H](O)CN2C(=O)[C@@H](NC(=O)COCCOCCNCCCONC(=O)c2ccc(F)c(F)c2Nc2ccc(I)cc2F)C(C)(C)C)cc1` [CPD-012, (2S,4R)-1-((S)-17-(tert-butyl)-1-(3,4-difluoro-2-((2-fluoro-4-iodophenyl)amino)phenyl)-1,15-dioxo-3,10,13-trioxa-2,7,16-triazaoctadecan-18-oyl)-4-hydroxy-N-(4-(4-methylthiazol-5-yl)benzyl)pyrrolidine-2-carboxamide] displayed a GI50 in assay [1] of 1.6 ± 0.3 µM.

In assay [1], `Cc1ncsc1-c1ccc([C@H](C)NC(=O)[C@@H]2C[C@@H](O)CN2C(=O)[C@@H](NC(=O)CCCCCCCCCCNCCCCONC(=O)c2ccc(F)c(F)c2Nc2ccc(I)cc2F)C(C)(C)C)cc1` [CPD-039, (2S,4R)-1-((S)-21-(tert-butyl)-1-(3,4-difluoro-2-((2-fluoro-4-iodophenyl)amino)phenyl)-1,19-dioxo-3-oxa-2,8,20-triazadocosan-22-oyl)-4-hydroxy-N—((S)-1-(4-(4-methylthiazol-5-yl)phenyl)ethyl)pyrrolidine-2-carboxamide] displayed a GI50 of 0.043 ± 0.001 µM.

Take `Cc1ncsc1-c1ccc(CNC(=O)[C@@H]2C[C@@H](O)CN2C(=O)[C@@H](NC(=O)CCCCCCCCNCCCONC(=O)c2ccc(F)c(F)c2Nc2ccc(I)cc2F)C(C)(C)C)cc1` [CPD-010, (2S,4R)-1-((S)-18-(tert-butyl)-1-(3,4-difluoro-2-((2-fluoro-4-iodophenyl)amino)phenyl)-1,16-dioxo-3-oxa-2,7,17-triazanonadecan-19-oyl)-4-hydroxy-N-(4-(4-methylthiazol-5-yl)benzyl)pyrrolidine-2-carboxamide]: it took 0.6 ± 0.1 µM to inhibit growth in assay [1] by half (GI50).
